Converted amounts (≈) assume the structure as drawn.
How the values were obtained:
[1] = compound concentration 10 ppm, foliar spray, evaluated 7 days after inoculation
Human ACC2 = Human ACC2 (Homo sapiens, UniProt O00763); assay: In vitro ACC2 inhibition assay (ADP-Glo), human ACC2; assay type: biochemical; details: 5 nM ACC2, 20 μM ATP, 20 μM acetyl-CoA
C. albicans ATCC 90028 = assay: Anti-Fungal Activity Assay (broth microtiter MIC), C. albicans; assay type: cell-based, Candida albicans; details: Candida albicans, ATCC90028, 48 h, 3 replicates; MIC recorded at 48 h; read-out: MIC C. albicans ATCC 90028
Procedure, shortened: (§1)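 MIC taken as visual growth inhibition versus the growth control, mostly at 48 h (soraphen also at 24 h). Following CLSI M27-A3, colonies grown overnight at 35° C on Sabouraud dextrose agar were suspended in RPMI 1640+MOPS; test agents came from 1 mg/mL DMSO stocks.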

C. krusei ATCC 6258 = assay: Anti-Fungal Activity Assay (broth microtiter MIC), C. krusei; assay type: cell-based, Candida krusei; details: Pichia kudriavzevii, ATCC6258, 48 h, 3 replicates; MIC recorded at 48 h; read-out: MIC C. krusei ATCC 6258
Procedure, shortened: as §1

[2] = test system: C. parapsilosis ATCC 22019; assay: Anti-Fungal Activity Assay (broth microtiter MIC), C. parapsilosis; assay type: cell-based, Candida parapsilosis; details: Lodderomyces parapsilosis, ATCC22019, 48 h, 3 replicates; MIC recorded at 48 h; read-out: MIC C. parapsilosis ATCC 22019
Procedure, shortened: as §1

Botrtyis cinerea (Bc) = assay: Growth inhibition assay of fungal pathogens, Bc; assay type: cell-based; details: 48 hours; read-out: Concentration at 90% Inhibition, Bc
Procedure: (§2) Compounds of the present invention were evaluated in a growth inhibition assay to determine the ability to control the growth of fungal pathogens, such as Botrtyis cinerea (Bc). Collectotrichum graminicola (Cg), Diplodia maydis (Dm), Fusarium moniliforme (Fm), Fusarium virguliforme (Fv), Phytophthora capsici (Pc), Rhizoctonia solani (Rs), and Septoria tritici (St). Compounds to be tested were dissolved in DMSO at 2.5 mg/ml to produce compound stock solutions (“stocks”). Stocks were diluted with DMSO by a five-fold dilution in a 96-well stock plate, and two sets of final concentrations of 50, 10, and 2 ppm or 2, 0.4, and 0.08 ppm were obtained in vitro. A set of positive controls was also prepared, with various concentrations of Soraphen (2, 0.4, and 0.08 ppm), Metalaxyl (1.1, 0.22, and 0.04 ppm), and Metconazole (2, 0.4, and 0.08 ppm or 0.2, 0.04, and 0.008 ppm) after the five-fold dilutions. Negative controls on each plate included 2% DMSO, water, and a blank (media+2% DMSO). Fungal spores were isolated from previously sub-cultured plates of Botrtyis cinerea (Bc), Collectotrichum graminicola (Cg), Diplodia maydis (Dm), Fusarium moniliforme (Fm), Fusarium virguliforme (Fv), Phytophthora capsici (Pc), and Septoria tritici (St). The isolated spores were diluted to individual concentrations with a 17% V8 liquid media. For Rhizoctonia solani (Rs) and Pythium irregulare, 1.5 mm mycelial plugs were used in place of spores and ¼ Potato Dextrose Broth (PDB) was used for dilution. The spore concentrations and plug sizes were based on growth curves generated at 48 hours for each pathogen. In a second 96-well plate, the spores or mycelial plugs, media, diluted compound solutions, and controls were combined. Once the compound was added, a true final concentration of compound in each well was measured by an OD600 reading, which adjusted for any compound precipitation that might have occurred in the well. Plate readings were repeated at both 24 and 48 hours. The blank negative control was used as a background subtraction. Additional visual ratings were performed at both 24 and 48 hours for checking on precipitation and confirming efficacy. Visual and OD600 ratings of the compounds at 48 hours were compared to the 2% DMSO negative control, and the percent of pathogen growth inhibition was determined based on those values.

[3] = test system: Collectotrichum graminicola (Cg); assay: Growth inhibition assay of fungal pathogens, Cg; assay type: cell-based; details: 48 hours; read-out: Concentration at 90% Inhibition, Cg
Procedure: as §2

Diplodia maydis (Dm) = assay: Growth inhibition assay of fungal pathogens, Dm; assay type: cell-based; details: Stenocarpella maydis; 48 hours; read-out: Concentration at 90% Inhibition, Dm
Procedure: as §2

[4] = test system: Fusarium moniliforme (Fm); assay: Growth inhibition assay of fungal pathogens, Fm; assay type: cell-based; details: Fusarium verticillioides; 48 hours; read-out: Concentration at 90% Inhibition, Fm
Procedure: as §2

[5] = test system: Fusarium virguliforme (Fv); assay: Growth inhibition assay of fungal pathogens, Fv; assay type: cell-based; details: 48 hours, read-out: Concentration at 90% Inhibition, Fv
Procedure: as §2

[6] = test system: Phytophthora capsici (Pc); assay: Growth inhibition assay of fungal pathogens, Pc; assay type: cell-based; details: 48 hours, read-out: Concentration at 90% Inhibition, Pc
Procedure: as §2

Rhizoctonia solani (Rs) = assay: Growth inhibition assay of fungal pathogens, Rs; assay type: cell-based; details: 48 hours, read-out: Concentration at 90% Inhibition, Rs
Procedure: as §2

Septoria tritici (St) = assay: Growth inhibition assay of fungal pathogens, St; assay type: cell-based; details: Zymoseptoria tritici; 48 hours; read-out: Concentration at 90% Inhibition, St
Procedure: as §2

[7] = test system: Blumeria graminis f sp. hordei; assay: Foliar protection test, barley powdery mildew control; assay type: in vivo, Blumeria graminis f sp. hordei on Hordeum vulgare cv. Perry; details: 168 h, compound concentration 50 ppm, foliar spray, evaluated 7 days after inoculation, read-out: Barley Powdery Mildew Control at 50 ppm
Procedure: Compounds of the present invention were evaluated in a foliar protection test to determine the ability to control barley powdery mildew. Plants (Hordeum vulgare cv. Perry) were grown for 6 days in 2-inch square pots containing Metromix 200 medium amended with fertilizer. For propagation, plants were maintained in a growth chamber at conditions of 20 to 21° C., 16 hour light cycle, 400 uM of light, 70% humidity, and with sub-irrigation as needed. After inoculation with the pathogen of Blumeria graminis f sp. hordei, plants were kept at conditions of 20 to 22° C., 70% relative humidity, and 200 uM of light to facilitate infection and disease development. At 6 days after planting (1st true leaf fully expanded), the test compounds were dissolved in a solution of 5% acetone and 0.005% Tween 80 surfactant. An atomizer was used for applying the solution onto both sides of the leaves until thoroughly wetted. The amount of the compound applied to the leaves was typically 200, 100, 50, 10, or 2 ppm, but it may vary. At 24 hours after treatment, the plants were moved to a cooler chamber and inoculated by shaking well-colonized, untreated stock plants above the treated plants. This allowed producing a settling cloud of spores and resulting in uniform infection. Efficacy was evaluated in 7 days later by examining leaves for colonization and growth of mildew. Table 5 lists the results of barley powdery mildew control at a compound concentration of 50 ppm or 10 ppm. Compounds having an activity designated as “AA” provided a compound having >85% control of barley powdery mildew; compounds having an activity designated as “A” provided a compound having from 70% to 84% control of barley powdery mildew; compounds having an activity designated as “B” provided a compound having from 50 to 69% control of barley powdery mildew; compounds having an activity designated as “C” provided a compound having from 25 to 49% control of barley powdery mildew; and compounds having an activity designated as “D” provided a compound having <25% control of barley powdery mildew.

Fungal ACC2 = Fungal ACC2 (UniProt Q00955); details: read-out: Fungal ACC2 (IC50, in vitro ACC2 inhibition)
Sequence of Fungal ACC2 (Q00955 whole entry): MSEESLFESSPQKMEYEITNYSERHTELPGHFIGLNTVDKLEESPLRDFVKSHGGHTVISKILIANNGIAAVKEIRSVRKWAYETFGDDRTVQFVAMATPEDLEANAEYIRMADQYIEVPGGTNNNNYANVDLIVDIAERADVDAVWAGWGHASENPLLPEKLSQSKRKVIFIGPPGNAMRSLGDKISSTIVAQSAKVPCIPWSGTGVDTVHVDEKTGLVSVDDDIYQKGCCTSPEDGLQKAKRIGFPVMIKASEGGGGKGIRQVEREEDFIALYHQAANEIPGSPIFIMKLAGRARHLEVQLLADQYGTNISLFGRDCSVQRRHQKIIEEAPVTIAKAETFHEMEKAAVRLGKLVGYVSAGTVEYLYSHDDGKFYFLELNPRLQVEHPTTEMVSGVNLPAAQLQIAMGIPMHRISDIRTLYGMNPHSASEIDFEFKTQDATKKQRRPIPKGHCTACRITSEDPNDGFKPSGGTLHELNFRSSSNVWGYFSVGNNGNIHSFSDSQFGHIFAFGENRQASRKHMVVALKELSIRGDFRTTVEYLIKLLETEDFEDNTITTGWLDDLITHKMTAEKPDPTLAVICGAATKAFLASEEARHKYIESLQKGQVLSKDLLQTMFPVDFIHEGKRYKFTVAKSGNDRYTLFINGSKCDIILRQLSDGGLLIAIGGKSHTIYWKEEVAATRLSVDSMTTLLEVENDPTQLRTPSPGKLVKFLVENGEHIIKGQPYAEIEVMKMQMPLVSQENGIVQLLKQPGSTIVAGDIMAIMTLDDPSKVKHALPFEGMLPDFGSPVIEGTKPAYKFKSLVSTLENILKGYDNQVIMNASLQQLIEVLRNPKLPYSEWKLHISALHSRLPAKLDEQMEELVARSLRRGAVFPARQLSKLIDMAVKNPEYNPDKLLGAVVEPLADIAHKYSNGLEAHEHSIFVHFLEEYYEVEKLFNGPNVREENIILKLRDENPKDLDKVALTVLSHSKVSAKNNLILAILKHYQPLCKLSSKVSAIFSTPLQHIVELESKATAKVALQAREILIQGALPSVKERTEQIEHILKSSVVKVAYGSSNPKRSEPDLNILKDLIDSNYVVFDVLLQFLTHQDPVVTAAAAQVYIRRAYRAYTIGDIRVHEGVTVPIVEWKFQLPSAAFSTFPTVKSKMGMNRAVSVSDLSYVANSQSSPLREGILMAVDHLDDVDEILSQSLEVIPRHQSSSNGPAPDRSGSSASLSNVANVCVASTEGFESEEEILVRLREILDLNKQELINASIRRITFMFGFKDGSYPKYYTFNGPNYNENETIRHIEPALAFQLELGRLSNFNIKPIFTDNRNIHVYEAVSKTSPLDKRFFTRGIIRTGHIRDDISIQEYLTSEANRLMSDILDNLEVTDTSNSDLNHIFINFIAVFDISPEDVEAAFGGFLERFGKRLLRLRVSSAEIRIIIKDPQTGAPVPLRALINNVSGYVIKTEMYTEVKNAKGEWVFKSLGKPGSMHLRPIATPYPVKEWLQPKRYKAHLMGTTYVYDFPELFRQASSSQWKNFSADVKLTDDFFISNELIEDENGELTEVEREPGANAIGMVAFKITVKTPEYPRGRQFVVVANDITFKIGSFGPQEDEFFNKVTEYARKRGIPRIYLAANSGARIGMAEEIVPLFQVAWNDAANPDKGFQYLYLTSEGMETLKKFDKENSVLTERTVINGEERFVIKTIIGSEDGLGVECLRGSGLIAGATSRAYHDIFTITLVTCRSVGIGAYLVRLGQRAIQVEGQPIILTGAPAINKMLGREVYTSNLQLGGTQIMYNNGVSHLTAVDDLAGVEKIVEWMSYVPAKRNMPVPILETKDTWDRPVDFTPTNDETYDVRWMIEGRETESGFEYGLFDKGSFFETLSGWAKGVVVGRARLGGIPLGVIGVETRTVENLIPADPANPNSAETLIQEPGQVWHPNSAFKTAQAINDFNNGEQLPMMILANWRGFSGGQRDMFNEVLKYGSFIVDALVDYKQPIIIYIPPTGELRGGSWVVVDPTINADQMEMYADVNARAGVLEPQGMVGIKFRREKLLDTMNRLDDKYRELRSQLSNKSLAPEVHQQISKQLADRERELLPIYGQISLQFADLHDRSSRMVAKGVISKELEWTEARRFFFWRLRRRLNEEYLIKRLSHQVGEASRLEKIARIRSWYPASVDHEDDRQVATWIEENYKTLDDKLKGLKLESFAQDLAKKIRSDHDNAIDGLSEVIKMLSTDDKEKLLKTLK

Sequence of Human ACC2 (O00763 whole entry): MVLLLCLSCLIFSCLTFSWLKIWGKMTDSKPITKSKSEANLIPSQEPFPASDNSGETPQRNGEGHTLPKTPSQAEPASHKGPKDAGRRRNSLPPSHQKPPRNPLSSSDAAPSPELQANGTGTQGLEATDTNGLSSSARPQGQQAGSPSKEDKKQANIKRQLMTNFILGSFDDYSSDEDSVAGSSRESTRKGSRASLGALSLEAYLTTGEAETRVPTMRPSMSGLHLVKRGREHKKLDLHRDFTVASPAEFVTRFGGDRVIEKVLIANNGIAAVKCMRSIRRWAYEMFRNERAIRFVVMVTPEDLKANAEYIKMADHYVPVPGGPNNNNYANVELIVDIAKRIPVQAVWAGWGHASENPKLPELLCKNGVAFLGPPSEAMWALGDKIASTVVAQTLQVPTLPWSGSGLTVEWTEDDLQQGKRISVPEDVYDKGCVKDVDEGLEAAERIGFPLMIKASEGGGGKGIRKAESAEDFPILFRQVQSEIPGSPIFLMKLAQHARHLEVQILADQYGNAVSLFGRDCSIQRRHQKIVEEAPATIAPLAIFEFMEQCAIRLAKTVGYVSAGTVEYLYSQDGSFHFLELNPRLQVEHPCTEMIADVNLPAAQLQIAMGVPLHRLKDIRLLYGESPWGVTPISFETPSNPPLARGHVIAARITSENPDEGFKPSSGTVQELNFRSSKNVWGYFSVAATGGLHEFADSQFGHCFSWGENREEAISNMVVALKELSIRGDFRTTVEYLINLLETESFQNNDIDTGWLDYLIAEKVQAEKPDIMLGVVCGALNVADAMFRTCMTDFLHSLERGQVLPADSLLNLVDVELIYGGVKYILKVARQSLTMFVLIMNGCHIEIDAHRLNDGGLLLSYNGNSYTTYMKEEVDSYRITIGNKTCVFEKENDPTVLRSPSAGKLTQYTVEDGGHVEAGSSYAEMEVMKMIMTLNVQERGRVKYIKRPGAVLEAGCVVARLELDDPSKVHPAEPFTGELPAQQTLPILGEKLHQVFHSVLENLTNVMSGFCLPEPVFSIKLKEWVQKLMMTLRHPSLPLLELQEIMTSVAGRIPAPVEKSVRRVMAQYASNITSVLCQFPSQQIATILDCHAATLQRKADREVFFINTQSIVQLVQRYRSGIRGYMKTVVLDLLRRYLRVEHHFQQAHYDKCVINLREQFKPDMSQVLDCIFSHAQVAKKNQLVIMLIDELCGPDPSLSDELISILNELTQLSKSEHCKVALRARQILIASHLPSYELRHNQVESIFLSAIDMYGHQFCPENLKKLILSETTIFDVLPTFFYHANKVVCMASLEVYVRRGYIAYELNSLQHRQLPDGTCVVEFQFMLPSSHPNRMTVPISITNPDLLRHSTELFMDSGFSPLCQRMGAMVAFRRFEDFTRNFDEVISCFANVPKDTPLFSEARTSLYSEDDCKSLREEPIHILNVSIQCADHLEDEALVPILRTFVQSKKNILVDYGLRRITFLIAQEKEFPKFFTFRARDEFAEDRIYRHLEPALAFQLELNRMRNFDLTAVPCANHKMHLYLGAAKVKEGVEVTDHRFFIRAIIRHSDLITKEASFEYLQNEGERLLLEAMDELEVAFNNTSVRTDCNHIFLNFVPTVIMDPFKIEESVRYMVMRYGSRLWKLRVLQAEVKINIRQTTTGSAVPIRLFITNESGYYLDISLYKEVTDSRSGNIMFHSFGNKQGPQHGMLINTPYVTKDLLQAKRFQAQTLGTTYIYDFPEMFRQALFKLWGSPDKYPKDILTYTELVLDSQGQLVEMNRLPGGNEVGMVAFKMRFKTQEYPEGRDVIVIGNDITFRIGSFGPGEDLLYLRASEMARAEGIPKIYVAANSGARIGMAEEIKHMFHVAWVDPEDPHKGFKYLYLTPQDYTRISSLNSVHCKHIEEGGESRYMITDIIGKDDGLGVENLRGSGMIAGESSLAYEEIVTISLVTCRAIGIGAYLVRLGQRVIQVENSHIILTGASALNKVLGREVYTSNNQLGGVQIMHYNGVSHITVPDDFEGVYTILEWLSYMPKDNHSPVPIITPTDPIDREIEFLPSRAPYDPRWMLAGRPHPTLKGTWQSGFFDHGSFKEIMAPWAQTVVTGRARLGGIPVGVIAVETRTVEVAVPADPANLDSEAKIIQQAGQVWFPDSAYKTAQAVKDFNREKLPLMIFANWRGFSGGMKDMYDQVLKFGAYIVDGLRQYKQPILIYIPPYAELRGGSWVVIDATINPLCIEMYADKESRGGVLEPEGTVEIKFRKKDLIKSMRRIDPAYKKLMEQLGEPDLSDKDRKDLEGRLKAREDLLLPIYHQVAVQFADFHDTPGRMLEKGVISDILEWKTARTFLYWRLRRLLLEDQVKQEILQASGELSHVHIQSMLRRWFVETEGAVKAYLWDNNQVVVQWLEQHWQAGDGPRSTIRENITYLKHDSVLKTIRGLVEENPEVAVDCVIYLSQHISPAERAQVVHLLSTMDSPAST

SMILES: COc1ccc(F)cc1[C@H](Cn1c(=O)n([C@H]2CCN(C(C)C)C2=O)c(=O)c2c(C)c(-n3nccn3)sc21)OCCO [Compound I-84, 1-((R)-2-(5-fluoro-2-methoxyphenyl)-2-(2-hydroxy-ethoxy)ethyl)-3-((S)-1-isopropyl-2-oxopyrrolidin-3-yl)-5-methyl-6-(2H-1,2,3-triazol-2-yl)thieno[2,3-d]pyrimidine-2.4(1H,3H)-dione]
- Barley Powdery Mildew Control at 10 ppm [1]: D (provided a compound having <25% control of barley powdery mildew)
- IC50 (Human ACC2): 2 to 10 nM
- MIC (C. albicans ATCC 90028): 2.1 to 4 µg/mL (≈ 3.58 to 6.82 µM)
- MIC (C. krusei ATCC 6258): 2.1 to 4 µg/mL (≈ 3.58 to 6.82 µM)
- MIC [2]: 2.1 to 4 µg/mL (≈ 3.58 to 6.82 µM)
- IC90 (Botrtyis cinerea (Bc)): 2 µg/mL (≈ 3.41 µM)
- IC90 [3]: 2 µg/mL (≈ 3.41 µM)
- IC90 (Diplodia maydis (Dm)): 10 µg/mL (≈ 17 µM)
- IC90 [4]: 2 µg/mL (≈ 3.41 µM)
- IC90 [5]: 2 µg/mL (≈ 3.41 µM)
- IC90 [6]: > 50 µg/mL
- IC90 (Rhizoctonia solani (Rs)): 2 µg/mL (≈ 3.41 µM)
- IC90 (Septoria tritici (St)): > 50 µg/mL
- pest or weed control at 50 ppm [7]: 50 to 69%

SMILES: COc1ccc(F)cc1[C@H](Cn1c(=O)n([C@@H]2CCCN(C(C)C)C2=O)c(=O)c2c(C)c(-n3nccn3)sc21)OCCO [Compound I-75, 1-((R)-2-(5-fluoro-2-methoxyphenyl)-2-(2-hydroxy-ethoxy)ethyl)-3-((R)-1-isopropyl-2-oxopiperidin-3-yl)-5-methyl-6-(2H-1,2,3-triazol-2-yl)thieno[2,3-d]pyrimidine-2,4(1H,3H)-dione]
- Barley Powdery Mildew Control at 10 ppm [1]: D (provided a compound having <25% control of barley powdery mildew)
- IC50 (Human ACC2): 10 to 100 nM
- MIC (C. albicans ATCC 90028): 2.1 to 4 µg/mL (≈ 3.5 to 6.66 µM)
- MIC (C. krusei ATCC 6258): 2.1 to 4 µg/mL (≈ 3.5 to 6.66 µM)
- MIC [2]: 2.1 to 4 µg/mL (≈ 3.5 to 6.66 µM)
- IC90 (Botrtyis cinerea (Bc)): 2 µg/mL (≈ 3.33 µM)
- IC90 [3]: 10 µg/mL (≈ 16.6 µM)
- IC90 (Diplodia maydis (Dm)): 10 µg/mL (≈ 16.6 µM)
- IC90 [4]: 2 µg/mL (≈ 3.33 µM)
- IC90 [5]: 10 µg/mL (≈ 16.6 µM)
- IC90 [6]: > 50 µg/mL
- IC90 (Rhizoctonia solani (Rs)): 2 µg/mL (≈ 3.33 µM)
- IC90 (Septoria tritici (St)): > 50 µg/mL
- pest or weed control at 50 ppm [7]: 50 to 69%

SMILES: COc1ccc(F)cc1[C@H](Cn1c(=O)n([C@H]2CCCN(C(C)C)C2=O)c(=O)c2c(C)c(-n3nccn3)sc21)OCCO [Compound I-74, 1-((R)-2-(5-fluoro-2-methoxyphenyl)-2-(2-hydroxy-ethoxy)ethyl)-3-((S)-1-isopropyl-2-oxopiperidin-3-yl)-5-methyl-6-(2H-1,2,3-triazol-2-yl)thieno[2,3-d]pyrimidine-2,4(1H,3H)-dione]
- Barley Powdery Mildew Control at 10 ppm [1]: D (provided a compound having <25% control of barley powdery mildew)
- IC50 (Human ACC2): 10 to 100 nM
- IC90 (Botrtyis cinerea (Bc)): 2 µg/mL (≈ 3.33 µM)
- IC90 [3]: 10 µg/mL (≈ 16.6 µM)
- IC90 (Diplodia maydis (Dm)): 10 µg/mL (≈ 16.6 µM)
- IC90 [4]: 2 µg/mL (≈ 3.33 µM)
- IC90 [5]: 2 µg/mL (≈ 3.33 µM)
- IC90 [6]: > 50 µg/mL
- IC90 (Rhizoctonia solani (Rs)): 2 µg/mL (≈ 3.33 µM)
- IC90 (Septoria tritici (St)): > 50 µg/mL
- pest or weed control at 50 ppm [7]: 70 to 84%

SMILES: COCCO[C@@H](Cn1c(=O)n([C@@H]2CCCN(C(C)C)C2=O)c(=O)c2c(C)c(-n3nccn3)sc21)c1cc(F)ccc1OC [Compound I-79, 1-((R)-2-(5-fluoro-2-methoxyphenyl)-2-(2-methoxy-ethoxy)ethyl)-3-((R)-1-isopropyl-2-oxopiperidin-3-yl)-5-methyl-6-(2H-1,2,3-triazol-2-yl)thieno[2,3-d]pyrimidine-2,4(1H,3H)-dione]
- IC50 (Human ACC2): 100 to 1000 nM
- MIC (C. albicans ATCC 90028): 1.1 to 2 µg/mL (≈ 1.79 to 3.25 µM)
- MIC (C. krusei ATCC 6258): 1.1 to 2 µg/mL (≈ 1.79 to 3.25 µM)
- MIC [2]: 0.25 to 1 µg/mL (≈ 0.407 to 1.63 µM)
- IC90 (Botrtyis cinerea (Bc)): > 50 µg/mL
- IC90 [3]: > 50 µg/mL
- IC90 (Diplodia maydis (Dm)): 10 µg/mL (≈ 16.3 µM)
- IC90 [4]: 10 µg/mL (≈ 16.3 µM)
- IC90 [5]: > 50 µg/mL
- IC90 [6]: > 50 µg/mL
- IC90 (Rhizoctonia solani (Rs)): > 50 µg/mL
- IC90 (Septoria tritici (St)): > 50 µg/mL
- pest or weed control at 50 ppm [7]: 50 to 69%
- IC50 (Fungal ACC2): 2 to 10 nM

SMILES: COCCO[C@@H](Cn1c(=O)n([C@H]2CCCN(C(C)C)C2=O)c(=O)c2c(C)c(-n3nccn3)sc21)c1cc(F)ccc1OC [Compound I-78, 1-((R)-2-(5-fluoro-2-methoxyphenyl)-2-(2-methoxy-ethoxy)ethyl)-3-((S)-1-isopropyl-2-oxopiperidin-3-yl)-5-methyl-6-(2H-1,2,3-triazol-2-yl)thieno[2,3-d]pyrimidine-2,4(1H,3H)-dione]
- IC50 (Human ACC2): 10 to 100 nM
- MIC (C. albicans ATCC 90028): 2.1 to 4 µg/mL (≈ 3.42 to 6.51 µM)
- MIC (C. krusei ATCC 6258): 2.1 to 4 µg/mL (≈ 3.42 to 6.51 µM)
- MIC [2]: 2.1 to 4 µg/mL (≈ 3.42 to 6.51 µM)
- IC90 (Botrtyis cinerea (Bc)): 2 µg/mL (≈ 3.25 µM)
- IC90 [3]: > 50 µg/mL
- IC90 (Diplodia maydis (Dm)): 10 µg/mL (≈ 16.3 µM)
- IC90 [4]: 2 µg/mL (≈ 3.25 µM)
- IC90 [5]: > 50 µg/mL
- IC90 [6]: > 50 µg/mL
- IC90 (Rhizoctonia solani (Rs)): > 50 µg/mL
- IC90 (Septoria tritici (St)): > 50 µg/mL
- pest or weed control at 50 ppm [7]: 25 to 49%
- IC50 (Fungal ACC2): 2 to 10 nM
